According to article PMC11555526, “Development of 2-Aminoadenine-Based Proteolysis-Targeting Chimeras (PROTACs) as Novel Potent Degraders of Monopolar Spindle 1 and Aurora Kinases” (ACS Pharmacology & Translational Science, 2024):
“And” between values parts separate entries of the source, which are not always exact repeats. Identical values can stand only once.

How the values were obtained:
Format in all cases: cell-based
[1] = biological target: T1, AURKB (Homo sapiens, UniProt Q96GD4); assay: Immunoblot of AURKB in naive MV4-11 cells; conditions: 6 h, 10 µM
T1 construct: endogenous in cells; host or cells: naive MV4-11
T1 sequence (Q96GD4 whole entry): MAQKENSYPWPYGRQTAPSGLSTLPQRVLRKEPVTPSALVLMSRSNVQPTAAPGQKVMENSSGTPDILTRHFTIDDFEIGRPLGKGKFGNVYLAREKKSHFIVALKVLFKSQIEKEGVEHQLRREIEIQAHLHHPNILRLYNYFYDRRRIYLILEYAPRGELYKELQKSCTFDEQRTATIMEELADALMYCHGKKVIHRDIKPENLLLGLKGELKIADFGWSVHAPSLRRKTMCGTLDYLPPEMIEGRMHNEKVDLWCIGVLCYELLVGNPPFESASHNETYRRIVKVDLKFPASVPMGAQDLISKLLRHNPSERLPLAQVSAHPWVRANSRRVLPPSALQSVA
Experimental: The cells were treated with compounds or vehicle for indicated time points and lysed in RIPA lysis buffer (50 mM HEPES pH 7.9, 140 mM NaCl, 1 mM EDTA, 1% Triton X-100, 0.1% SDS, 0.1% sodium deoxycholate) containing protease and phosphatase inhibitors (Sigma) for 20 min at 4 °C. Cell lysates were cleared by centrifugation, and protein concentration was determined with bicinchoninic acid assay. Equal amounts of protein per sample were separated by Bis-Tris-PAGE and transferred to PVDF membranes (Millipore). The membranes were blocked with 5% (w/v) nonfat dry milk in TBS-T [20 mM Tris–HCl, pH 7.5, 150 mM NaCl, 0.1% (v/v) Tween-20] for 1 h at room temperature and incubated with primary antibody at 4 °C overnight. Visualization was carried out using horseradish peroxidase (HRP)-labeled secondary antibodies and detected using a chemiluminescent HRP substrate (Millipore) in LAS3000 or LAS4000 mini (Fujifilm). Vinculin, GAPDH, or B-actin were used as a loading control. The loading control was probed along with the target antibody by cutting the membrane. For targets with similar molecular weights, the samples were run in duplicate and probed with their respective loading controls, although only one control was shown in the figure for all targets. The signal was quantified using ImageJ or Image Studio Lite against the corresponding loading controls. Antibodies used in this study were as follows: Aurora A/AIK (Cell Signaling Technology, 3092), Aurora B (Bethyl Laboratories, A300–431A), TTK (Santa Cruz Biotechnology, sc-56968), GAPDH (Cell Signaling Technology, 2118), B-Actin (Sigma, A5441), and Vinculin (Sigma, V9131).
α GAPDH α Vinculin α B-Actin
Figure S2: Cellular degradation studies of SF1-based compounds. […]
Immunoblots of TTK and AURKB. Naive MV4-11 cells were treated with indicated concentration of 44 or 47 G)
(E), 18 (F), and 14 or 20 (G) for 6 h and compared with vehicle treated cells. […]
All HiBiT data are represented as a mean ±s.d. from n=2 replicates. […]

[2] = biological target: T2, AURKB (MV4-11^AURKB-HiBiT cells) (Homo sapiens, UniProt Q96GD4); assay: HiBiT assay, AURKB degradation; conditions: 6 h treatment; for DC50: read-out: DC50 (half-maximal degradation concentration) AURKB
T2 construct: expressed in transfected cells; host or cells: MV4-11, lentiviral transduction (pRRL-PGK vector)
T2 sequence (Q96GD4 1-345 isoform Q96GD4-5): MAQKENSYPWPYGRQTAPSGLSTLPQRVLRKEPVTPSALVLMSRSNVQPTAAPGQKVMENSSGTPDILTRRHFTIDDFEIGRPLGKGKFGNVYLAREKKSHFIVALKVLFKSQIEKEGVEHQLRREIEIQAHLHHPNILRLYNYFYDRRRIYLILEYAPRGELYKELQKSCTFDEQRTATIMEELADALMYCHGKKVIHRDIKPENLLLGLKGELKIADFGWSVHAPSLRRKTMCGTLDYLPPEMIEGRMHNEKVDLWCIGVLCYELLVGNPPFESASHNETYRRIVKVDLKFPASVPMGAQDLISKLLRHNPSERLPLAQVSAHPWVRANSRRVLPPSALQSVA
Method in brief: (§1)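 MV4-11 lines stably expressing HiBiT-tagged AURKA, AURKB or TTK (lentiviral) were treated with serial compound dilutions for the indicated times. Remaining tagged protein was read by lytic HiBiT luminescence, and DC50 was fitted with a four-parameter dose–response equation using concentrations showing sigmoidal behaviour.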

[3] = biological target: T3, AURKA (MV4-11^AURKA-HiBiT cells) (Homo sapiens, UniProt O14965); assay: HiBiT assay, AURKA degradation; conditions: for Dmax (maximal degradation) AURKA / DC50: 6 h treatment, MV4-11^AURKA-HiBiT cells; for DC50: read-out: DC50 (half-maximal degradation concentration) AURKA
T3 construct: expressed in transfected cells; host or cells: MV4-11, lentiviral transduction
T3 sequence (O14965 1-403): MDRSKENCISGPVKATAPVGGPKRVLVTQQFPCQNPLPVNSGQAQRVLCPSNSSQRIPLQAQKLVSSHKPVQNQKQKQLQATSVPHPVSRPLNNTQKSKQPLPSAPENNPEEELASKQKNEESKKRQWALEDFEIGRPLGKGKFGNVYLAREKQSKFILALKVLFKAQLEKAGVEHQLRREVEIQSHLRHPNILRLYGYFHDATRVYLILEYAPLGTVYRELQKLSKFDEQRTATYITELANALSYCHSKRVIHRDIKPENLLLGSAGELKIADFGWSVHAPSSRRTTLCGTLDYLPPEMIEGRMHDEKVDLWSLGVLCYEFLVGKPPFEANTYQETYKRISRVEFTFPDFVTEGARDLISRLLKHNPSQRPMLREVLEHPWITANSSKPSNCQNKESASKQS
Method in brief: as §1

Compound	relative AURKB level (immunoblot quantification, vehicle = 1.00) [1]	Dmax (maximal degradation) AURKB [2]	DC50 [2]	Dmax (maximal degradation) AURKA [3]	DC50 [3]	DC50 (half-maximal degradation concentration) AURKB [2]	efficiency of AURKA degradation (Dmax) relative to AURKB and TTK ([3]; HiBiT, 6 h)	selectivity of AURKA degradation (DC50) relative to AURKB and TTK ([3]; HiBiT, 6 h)
CC(C)S(=O)(=O)c1ccccc1Nc1nc(Nc2ccc(N3CCN(C(=O)CCCC(=O)Nc4cccc5c4C(=O)N(C4CCC(=O)NC4=O)C5=O)CC3)cc2)nc2[nH]cnc12 (centres unmarked) [Compound 14]	0.87	38.80%	0.168 µM	50.10%	0.046 µM			
Cc1ncsc1-c1ccc(CNC(=O)[C@@H]2C[C@@H](O)CN2C(=O)[C@@H](NC(=O)COCCOCC(=O)N2CCN(c3ccc(Nc4nc(Nc5ccccc5S(=O)(=O)C(C)C)c5nc[nH]c5n4)cc3)CC2)C(C)(C)C)cc1 [Compound 49]		32.17%	3.69 µM	38.00%	0.814 µM			
Cc1ncsc1-c1ccc(CNC(=O)[C@@H]2C[C@@H](O)CN2C(=O)[C@@H](NC(=O)CCCC(=O)N2CCN(c3ccc(Nc4nc(Nc5ccccc5S(=O)(=O)C(C)C)c5nc[nH]c5n4)cc3)CC2)C(C)(C)C)cc1 [Compound 44]	0.79	20.30%		35.20%	1.7 µM	– (compounds with degradation less than 25% were not calculated and reported as “–”)		
CC(C)S(=O)(=O)c1ccccc1Nc1nc(Nc2ccc(N3CCN(C(=O)CNC(=O)CCCC(=O)Nc4cccc5c4C(=O)N(C4CCC(=O)NC4=O)C5=O)CC3)cc2)nc2[nH]cnc12 (centres unmarked) [Compound 20]		29.40%	0.248 µM	71% and 70.70%	0.068 µM and 0.0677 µM		1.5–2.4 times	3.7–4.2 fold
